This note sets out measurements from PubChem BioAssay (NCI).

Among the test systems are MDA-N; OVCAR-5 ovarian; RPMI-8226 leukemia; MDA-MB-435; A549 NSCLC; ACHN renal; SW-620 colon; UACC-62 melanoma; NCI-H522 lung; MOLT-4 leukemia; SNB-75 CNS; IGROV1 ovarian; MALME-3M melanoma; EKVX NSCLC.
What all share (assay): NCI-60 cell line screen, 48 h

Structures are written as SMILES.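 Five compound concentrations were applied to cells in 96-well plates for 48 hours; endpoints were derived by simple linear interpolation of the resulting dose-response curve. Here, GI50 denotes the concentration required for 50% inhibition of growth. TGI: total growth inhibition.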

Turning to `CC1=CCC2CC1NC(=O)CCOCCC(=O)NC2(C)C` (stereo not given), the TGI in the experiment on MDA-N, with OVCAR-5 ovarian, in the experiment on RPMI-8226 leukemia, with MDA-MB-435, in the experiment with A549 NSCLC and with ACHN renal was above 100 µM in each case. Moreover, the TGI with SW-620 colon, in the experiment with UACC-62 melanoma, in the experiment on NCI-H522 lung and in the experiment with MOLT-4 leukemia was above 100 µM in each case.

With `CN(C(=O)c1ccco1)C(=S)N1CCN(c2ccccn2)CC1`, the TGI in the experiment on OVCAR-5 ovarian, with RPMI-8226 leukemia, in the experiment on A549 NSCLC, in the experiment with SNB-75 CNS, in the experiment on ACHN renal and in the experiment on IGROV1 ovarian was above 100 µM each time. Besides, the TGI in the experiment with SW-620 colon, in the experiment on UACC-62 melanoma, in the experiment on NCI-H522 lung, in the experiment on MALME-3M melanoma and in the experiment on MOLT-4 leukemia was above 100 µM throughout.

As for `O=C1/C(=C/c2ccc(Cl)cc2)CSC/C1=C\c1ccc(Cl)cc1`, the TGI in the experiment on MDA-N turned out to be 10.6 µM; in the experiment on OVCAR-5 ovarian, 5.57 µM; with RPMI-8226 leukemia, 5 µM; with EKVX NSCLC it was 41.7 µM; in the experiment with A549 NSCLC it was 10.1 µM; in the experiment on ACHN renal, 12.6 µM. For the same compound, the TGI in the experiment with IGROV1 ovarian stood at 3.65 µM; in the experiment with SW-620 colon, 13.4 µM; in the experiment with UACC-62 melanoma, 2.83 µM; with NCI-H522 lung, 15.2 µM; with MALME-3M melanoma, 36.9 µM; in the experiment with MOLT-4 leukemia, 9 µM.

For `COC(=O)C1=C(CCC[C@H](C)O[Si](C)(C)C(C)(C)C)NC(=O)N2[C@@H](CCO)CC[C@H]12`, the TGI in the experiment on OVCAR-5 ovarian worked out at 33.7 µM; with RPMI-8226 leukemia it was 53.6 µM; in the experiment on MDA-MB-435, 39.7 µM; in the experiment on EKVX NSCLC it was 26.1 µM; with A549 NSCLC, 25.6 µM; in the experiment with SNB-75 CNS, 30.5 µM. For the same compound, the TGI was 30.3 µM in the experiment with ACHN renal; 31.8 µM in the experiment with IGROV1 ovarian; 42.5 µM with SW-620 colon; 19.2 µM in the experiment with NCI-H522 lung; 25.9 µM with MALME-3M melanoma; above 100 µM with MOLT-4 leukemia.

Turning to `O=c1c([OH2+])c(-c2ccc(O)cc2[O-])oc2cc(O)cc([O-])c12.O=c1c([OH2+])c(-c2ccc(O)cc2[O-])oc2cc(O)cc([O-])c12.[Ti+4]`, the TGI in the experiment on OVCAR-5 ovarian, in the experiment on RPMI-8226 leukemia, in the experiment on EKVX NSCLC, in the experiment with A549 NSCLC, with SNB-75 CNS and with ACHN renal was above 100 µM each time. Moreover, the TGI in the experiment on IGROV1 ovarian, in the experiment with SW-620 colon, in the experiment with UACC-62 melanoma, with NCI-H522 lung, in the experiment with MALME-3M melanoma and in the experiment with MOLT-4 leukemia was above 100 µM throughout. Moreover, the GI50 in the experiment on RPMI-8226 leukemia, in the experiment on UACC-62 melanoma and in the experiment on MOLT-4 leukemia was above 100 µM throughout.

As to `COC(=O)C1(C)NCCc2c1[nH]c1ccccc21` (stereo not given), the TGI in the experiment with OVCAR-5 ovarian, in the experiment on RPMI-8226 leukemia, with EKVX NSCLC, in the experiment on A549 NSCLC, in the experiment on SNB-75 CNS and in the experiment with IGROV1 ovarian was above 100 µM throughout. Besides, the TGI with SW-620 colon, in the experiment on UACC-62 melanoma, with NCI-H522 lung, in the experiment with MALME-3M melanoma and with MOLT-4 leukemia was above 100 µM in each case.

On to `COc1cccc(NC(=O)C(=O)C2C=CCS2(=O)=O)c1` (stereo not given), for which the TGI with OVCAR-5 ovarian, in the experiment on RPMI-8226 leukemia, in the experiment with EKVX NSCLC, with A549 NSCLC, with SNB-75 CNS and in the experiment with ACHN renal was above 100 µM in each case. For the same compound, the TGI in the experiment on IGROV1 ovarian, in the experiment with SW-620 colon, with UACC-62 melanoma, in the experiment with NCI-H522 lung, with MALME-3M melanoma and in the experiment on MOLT-4 leukemia was above 100 µM throughout.

Take `N#Cc1ccc(C2NN=CC23C(=O)c2ccccc2OC3c2ccccc2)cc1` (stereo not given): the TGI was above 100 µM in the experiment with OVCAR-5 ovarian; 61.4 µM in the experiment with RPMI-8226 leukemia; above 100 µM with MDA-MB-435; 84.8 µM in the experiment with EKVX NSCLC; above 100 µM in the experiment with A549 NSCLC; above 100 µM with ACHN renal. Further, the TGI was above 100 µM in the experiment on IGROV1 ovarian; above 100 µM in the experiment with SW-620 colon; above 100 µM in the experiment on UACC-62 melanoma; 54.4 µM in the experiment with NCI-H522 lung; above 100 µM in the experiment on MALME-3M melanoma; above 100 µM in the experiment on MOLT-4 leukemia.

Turning to `CC1(C)OC(=O)C(Cc2ccccc2)(Cc2ccccc2)C(=O)O1`, the TGI in the experiment with MDA-N, in the experiment on OVCAR-5 ovarian, in the experiment with EKVX NSCLC, in the experiment on A549 NSCLC, in the experiment with SNB-75 CNS and in the experiment on ACHN renal was above 100 µM each time. Further, the TGI in the experiment with IGROV1 ovarian, in the experiment on SW-620 colon, in the experiment on UACC-62 melanoma, in the experiment on NCI-H522 lung, with MALME-3M melanoma and in the experiment with MOLT-4 leukemia was above 100 µM each time.

Turning to `O=c1ccnc2ccc3n[nH][nH]c3c12`, the TGI in the experiment on OVCAR-5 ovarian, in the experiment with RPMI-8226 leukemia, in the experiment with EKVX NSCLC, in the experiment with A549 NSCLC, in the experiment on SNB-75 CNS and with ACHN renal was above 100 µM throughout. Further, the TGI in the experiment on IGROV1 ovarian, with SW-620 colon, in the experiment with UACC-62 melanoma, in the experiment with MALME-3M melanoma and in the experiment with MOLT-4 leukemia was above 100 µM in each case.

Turning to `CSCCC(C(=O)O)N(CC1(O)OCC(O)C(O)C1O)N=O` (stereo not given), the TGI in the experiment with OVCAR-5 ovarian, in the experiment with RPMI-8226 leukemia, in the experiment on EKVX NSCLC, in the experiment on A549 NSCLC, in the experiment with SNB-75 CNS and in the experiment with ACHN renal was above 100 µM each time. Also, the TGI in the experiment with IGROV1 ovarian, in the experiment on SW-620 colon, in the experiment with UACC-62 melanoma, with NCI-H522 lung, with MALME-3M melanoma and in the experiment on MOLT-4 leukemia was above 100 µM in each case.
